Experimental data from patent publication US20260207602A1, “EGFR INHIBITORS” (Blueprint Medicines Corporation, priority 2022, published 2026).

Assays:
EGFR (d746-750) = target: T1, EGFR (d746-750) (Homo sapiens, UniProt P00533, DEL746-750); assay: Biochemical EGFR inhibition assay (Caliper mobility shift), EGFR (d746-750); conditions: biochemical Caliper mobility shift assay, EGFR Exon 19-del enzyme; read-out: Enz EGFR Exon 19-del IC50
T1 construct: purchased SignalChem E10-122JG
Outline: (§1)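 Apparent IC50 values come from Caliper electrophoretic separation of phosphorylated and unphosphorylated 5-FAM peptide (2.5 μM). ATP was either 1.0 mM or at Km; HEPES pH 7.5 buffer with MgCl2, DTT, 1% DMSO. Reactions ran at 25 °C until 10–20% phosphorylated, then EDTA quench.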

[1] = target: intracellular phosphorylation of EGFR (Tyr1068) in PC-9 cells (Homo sapiens, UniProt P00533, DEL746-750); assay: PC-9 pEGFR AlphaLISA assay; type: cell-based; conditions: 4 hours incubation, read-out: Phos EGFR PC9 IC50
Outline: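 PC-9 cells (EGFR del746-750) in phenol-free DMEM/10% FBS, adhered overnight, then exposed to 10-point 4-fold compound dilutions for 4 h at 37 °C. Lysates assayed for pEGFR Tyr1068 by AlphaLISA SureFire Ultra; IC50 from percent pEGFR inhibition vs log concentration.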

EGFR L858R = target: T2, EGFR L858R (Homo sapiens, UniProt P00533, L858R); assay: Biochemical EGFR inhibition assay (Caliper mobility shift), EGFR L858R; conditions: biochemical Caliper mobility shift assay, EGFR L858R enzyme; read-out: Enz EGFR L858R IC50
T2 construct: purchased SignalChem E10-122BG
Outline: as §1

Chain of intracellular phosphorylation of EGFR (Tyr1068) in PC-9 cells (P00533 with tags, fused parts or gaps DEL746-750): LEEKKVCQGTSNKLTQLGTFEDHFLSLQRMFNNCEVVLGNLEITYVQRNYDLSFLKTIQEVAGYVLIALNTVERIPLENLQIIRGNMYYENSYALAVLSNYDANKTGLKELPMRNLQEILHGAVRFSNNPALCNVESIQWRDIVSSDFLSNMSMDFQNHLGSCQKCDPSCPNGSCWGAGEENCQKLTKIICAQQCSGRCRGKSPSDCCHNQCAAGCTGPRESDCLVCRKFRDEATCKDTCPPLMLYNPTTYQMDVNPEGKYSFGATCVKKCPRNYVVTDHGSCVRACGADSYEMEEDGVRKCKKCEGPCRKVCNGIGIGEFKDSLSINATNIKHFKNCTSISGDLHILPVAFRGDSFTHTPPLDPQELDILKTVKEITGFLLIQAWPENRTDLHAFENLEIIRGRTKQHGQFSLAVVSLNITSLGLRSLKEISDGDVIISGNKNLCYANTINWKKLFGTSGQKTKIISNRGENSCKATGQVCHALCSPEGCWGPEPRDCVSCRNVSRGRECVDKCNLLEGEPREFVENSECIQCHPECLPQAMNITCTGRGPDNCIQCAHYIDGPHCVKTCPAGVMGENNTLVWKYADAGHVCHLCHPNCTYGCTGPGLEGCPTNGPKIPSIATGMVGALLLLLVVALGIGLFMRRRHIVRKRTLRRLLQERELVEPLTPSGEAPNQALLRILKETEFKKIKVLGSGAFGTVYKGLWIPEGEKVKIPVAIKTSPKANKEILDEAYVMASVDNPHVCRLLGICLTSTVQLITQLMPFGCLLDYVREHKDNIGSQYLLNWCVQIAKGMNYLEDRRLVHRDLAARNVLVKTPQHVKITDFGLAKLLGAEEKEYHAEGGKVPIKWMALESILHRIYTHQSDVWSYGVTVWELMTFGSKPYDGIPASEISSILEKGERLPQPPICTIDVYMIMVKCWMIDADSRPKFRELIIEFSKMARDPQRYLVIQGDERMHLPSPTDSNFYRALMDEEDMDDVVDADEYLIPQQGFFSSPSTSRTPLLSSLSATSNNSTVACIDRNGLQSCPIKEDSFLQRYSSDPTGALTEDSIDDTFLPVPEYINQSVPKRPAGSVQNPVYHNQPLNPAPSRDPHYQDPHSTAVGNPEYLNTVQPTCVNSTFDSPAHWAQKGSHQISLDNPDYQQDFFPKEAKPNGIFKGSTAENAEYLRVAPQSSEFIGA
T1 sequence (P00533 with tags, fused parts or gaps DEL746-750 limits assumed): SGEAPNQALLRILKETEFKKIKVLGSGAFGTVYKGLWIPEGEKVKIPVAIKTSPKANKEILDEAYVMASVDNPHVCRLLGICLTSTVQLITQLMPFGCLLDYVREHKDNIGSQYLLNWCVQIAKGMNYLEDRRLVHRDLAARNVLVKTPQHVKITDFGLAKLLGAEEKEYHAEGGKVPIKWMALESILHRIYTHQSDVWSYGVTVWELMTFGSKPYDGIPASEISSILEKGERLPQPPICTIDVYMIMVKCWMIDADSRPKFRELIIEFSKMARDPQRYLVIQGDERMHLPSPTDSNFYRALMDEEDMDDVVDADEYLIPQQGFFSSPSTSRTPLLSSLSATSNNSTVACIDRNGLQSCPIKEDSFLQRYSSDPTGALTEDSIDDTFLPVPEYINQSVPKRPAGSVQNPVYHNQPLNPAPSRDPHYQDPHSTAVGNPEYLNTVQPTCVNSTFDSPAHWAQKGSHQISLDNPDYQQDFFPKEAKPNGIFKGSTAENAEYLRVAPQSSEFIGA
T2 sequence (P00533 25-1210 L858R): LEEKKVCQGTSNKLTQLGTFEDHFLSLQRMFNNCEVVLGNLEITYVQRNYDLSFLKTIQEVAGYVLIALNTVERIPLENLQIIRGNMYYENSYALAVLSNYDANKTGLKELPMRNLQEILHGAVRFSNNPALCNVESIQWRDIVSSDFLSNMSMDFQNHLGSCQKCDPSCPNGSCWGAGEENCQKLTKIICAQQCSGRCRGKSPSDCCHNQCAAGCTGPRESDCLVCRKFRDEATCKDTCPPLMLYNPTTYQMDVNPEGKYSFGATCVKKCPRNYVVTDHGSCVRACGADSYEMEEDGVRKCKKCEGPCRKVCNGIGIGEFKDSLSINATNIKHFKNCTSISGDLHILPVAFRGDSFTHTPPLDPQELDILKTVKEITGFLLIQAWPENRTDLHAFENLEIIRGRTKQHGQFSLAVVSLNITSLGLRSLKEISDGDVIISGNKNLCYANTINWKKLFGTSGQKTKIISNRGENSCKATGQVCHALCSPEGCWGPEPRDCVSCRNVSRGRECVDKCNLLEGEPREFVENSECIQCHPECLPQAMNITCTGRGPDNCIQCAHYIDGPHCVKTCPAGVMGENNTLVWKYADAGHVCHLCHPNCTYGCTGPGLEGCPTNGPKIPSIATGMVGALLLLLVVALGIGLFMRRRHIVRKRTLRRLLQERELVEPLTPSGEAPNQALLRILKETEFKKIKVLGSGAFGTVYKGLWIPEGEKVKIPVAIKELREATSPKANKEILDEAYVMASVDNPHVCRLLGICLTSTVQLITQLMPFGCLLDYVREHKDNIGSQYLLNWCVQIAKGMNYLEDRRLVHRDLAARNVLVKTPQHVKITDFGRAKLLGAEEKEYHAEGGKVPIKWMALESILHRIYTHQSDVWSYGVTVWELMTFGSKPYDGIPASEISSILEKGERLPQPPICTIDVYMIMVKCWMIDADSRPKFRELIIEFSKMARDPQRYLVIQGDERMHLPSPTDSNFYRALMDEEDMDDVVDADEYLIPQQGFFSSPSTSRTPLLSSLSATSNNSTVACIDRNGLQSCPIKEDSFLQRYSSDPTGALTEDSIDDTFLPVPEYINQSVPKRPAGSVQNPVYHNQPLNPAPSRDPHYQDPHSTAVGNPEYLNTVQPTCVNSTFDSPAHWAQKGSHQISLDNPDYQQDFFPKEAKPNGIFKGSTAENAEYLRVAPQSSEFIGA

SMILES	IC50 (EGFR (d746-750))	IC50 [1]	IC50 (EGFR L858R)
CN1CC(Oc2cc(-c3cnn(C)c3)cc3ncnc(Nc4ccc5ncsc5c4)c23)C1 [Example 27, N-(7-(1-methyl-1H-pyrazol-4-yl)-5-((1-methylazetidin-3-yl)oxy)quinazolin-4-yl)benzo[d]thiazol-6-amine]	10.1 to 50 nM	10.1 to 50 nM	10.1 to 50 nM
Cn1cc(-c2cc(O[C@@H]3CCOC[C@@H]3F)c3c(Nc4ccc5ncsc5c4)ncnc3c2)cn1 (single isomer, unassigned) [Example 43]	≤ 10 nM	10.1 to 50 nM	≤ 10 nM
CN1CCN(C(=O)COc2cc(-c3cnn(C)c3)cc3ncnc(Nc4ccc5ncsc5c4F)c23)CC1 [Example 275, 2-((4-((7-fluorobenzo[d]thiazol-6-yl)amino)-7-(1-methyl-1H-pyrazol-4-yl)quinazolin-5-yl)oxy)-1-(4-methylpiperazin-1-yl)ethan-1-one]	≤ 10 nM	10.1 to 50 nM	≤ 10 nM
C[C@@H](Oc1cc(N2CCN(C)CC2)cc2ncnc(Nc3ccc4ncsc4c3)c12)C1COC1 (single isomer, unassigned) [Example 97]	≤ 10 nM	10.1 to 50 nM	10.1 to 50 nM
C[C@@H](Oc1cc(N2CC3CC(C2)O3)cc2ncnc(Nc3ccc4ncsc4c3F)c12)C1COC1 [Example 180, N-(7-(6-oxa-3-azabicyclo[3.1.1]heptan-3-yl)-5-((R)-1-(oxetan-3-yl)ethoxy)quinazolin-4-yl)-7-fluorobenzo[d]thiazol-6-amine]	≤ 10 nM	≤ 10 nM	≤ 10 nM
C[C@@H](CN(C)C)Oc1cc(N2CCN(C)CC2)cc2ncnc(Nc3ccc4ncsc4c3)c12 (single isomer, unassigned) [Example 116]	10.1 to 50 nM	> 50.1 nM	> 50.1 nM
C[C@H](CN(C)C)Oc1cc(N2CC3CC(C2)O3)cc2ncnc(Nc3ccc4ncsc4c3F)c12 [Example 176, N-(7-(6-oxa-3-azabicyclo[3.1.1]heptan-3-yl)-5-(((R)-1-(dimethylamino)propan-2-yl)oxy)quinazolin-4-yl)-7-fluorobenzo[d]thiazol-6-amine]	≤ 10 nM	≤ 10 nM	10.1 to 50 nM
C[C@@H](Oc1cc(-c2cnn(C)c2)cc2ncnc(Nc3ccc4ncsc4c3F)c12)C1(C)COC1 (single isomer, unassigned) [Example 86]	≤ 10 nM	≤ 10 nM	≤ 10 nM
CC[C@H](Oc1cc(-c2cnn(C)c2)cc2ncnc(Nc3ccc4ncsc4c3F)c12)C1CN(C)C1 (single isomer, unassigned) [Example 390]	> 50.1 nM	> 50.1 nM	> 50.1 nM
COC[C@@H](C)Oc1cc(N2CCN3CCC[C@@H]3C2)cc2ncnc(Nc3ccc4ncsc4c3)c12 [Example 192, N-(7-((R)-hexahydropyrrolo[1,2-a]pyrazin-2(1H)-yl)-5-(((R)-1-methoxypropan-2-yl)oxy)quinazolin-4-yl)benzo[d]thiazol-6-amine]	≤ 10 nM	10.1 to 50 nM	≤ 10 nM
Cn1cc(-c2cc(OCC(F)(F)F)c3c(Nc4ccc5ncsc5c4)ncnc3c2)cn1 [Example 50, N-(7-(1-methyl-1H-pyrazol-4-yl)-5-(2,2,2-trifluoroethoxy)quinazolin-4-yl)benzo[d]thiazol-6-amine]	≤ 10 nM	10.1 to 50 nM	≤ 10 nM
Cc1ccn(-c2cc(OC3CCOCC3)c3c(Nc4ccc5ncsc5c4)ncnc3c2)n1 [Example 136, N-(7-(3-methyl-1H-pyrazol-1-yl)-5-((tetrahydro-2H-pyran-4-yl)oxy)quinazolin-4-yl)benzo[d]thiazol-6-amine]	≤ 10 nM	10.1 to 50 nM	≤ 10 nM
CO[C@@H]1CCN(c2cc(O[C@H](C)C3COC3)c3c(Nc4ccc5ncsc5c4)ncnc3c2)C1 [Example 198, N-(7-((R)-3-methoxypyrrolidin-1-yl)-5-((R)-1-(oxetan-3-yl)ethoxy)quinazolin-4-yl)benzo[d]thiazol-6-amine]	≤ 10 nM	≤ 10 nM	≤ 10 nM
CN1CCC(Oc2cc(-c3cn(C)n(C(F)F)c3=O)cc3ncnc(Nc4ccc5ncsc5c4)c23)CC1 [Example A17, 4-(4-(benzo[d]thiazol-6-ylamino)-5-((1-methylpiperidin-4-yl)oxy)quinazolin-7-yl)-2-(difluoromethyl)-1-methyl-1,2-dihydro-3H-pyrazol-3-one]	≤ 10 nM	10.1 to 50 nM	10.1 to 50 nM
COc1cc2ncnc(Nc3ccc4ncsc4c3)c2cc1NC(=O)N1C[C@H]2CCN(C)[C@H]2C1 [Example 251, (3aR,6aR)-N-(4-(benzo[d]thiazol-6-ylamino)-7-methoxyquinazolin-6-yl)-1-methylhexahydropyrrolo[3,4-b]pyrrole-5(1H)-carboxamide]	≤ 10 nM	10.1 to 50 nM	≤ 10 nM
C[C@@H]1CN(c2cc(O[C@H](C)C3COC3)c3c(Nc4ccc5ncsc5c4F)ncnc3c2)CCN1C (single isomer, unassigned) [Example 103]	≤ 10 nM	≤ 10 nM	10.1 to 50 nM
CN1CCC2(COC2)C(Oc2cc(-c3cnn(C)c3)cc3ncnc(Nc4ccc5ncsc5c4)c23)C1 (stereo not drawn) [Example 352, N-(7-(1-methyl-1H-pyrazol-4-yl)-5-((7-methyl-2-oxa-7-azaspiro[3.5]nonan-5-yl)oxy)quinazolin-4-yl)benzo[d]thiazol-6-amine]	≤ 10 nM	≤ 10 nM	≤ 10 nM
CO[C@@H]1CCNC[C@H]1Oc1cc(-c2cnn(C)c2)cc2ncnc(Nc3ccc4ncsc4c3)c12 (single isomer, unassigned) [Example A37]	≤ 10 nM	10.1 to 50 nM	≤ 10 nM
COc1nn(C)cc1-c1cc(O[C@H]2CNC[C@H]2F)c2c(Nc3ccc4ncsc4c3)ncnc2c1 (racemic) [Example 371, N-(5-(((3S,4R)-4-fluoropyrrolidin-3-yl)oxy)-7-(3-methoxy-1-methyl-1H-pyrazol-4-yl)quinazolin-4-yl)benzo[d]thiazol-6-amine and N-(5-(((3R,4S)-4-fluoropyrrolidin-3-yl)oxy)-7-(3-methoxy-1-methyl-1H-pyrazol-4-yl)quinazolin-4-yl)benzo[d]thiazol-6-amine]	≤ 10 nM	10.1 to 50 nM	10.1 to 50 nM
OC(Cn1cc(-c2cc(OC3CCOCC3)c3c(Nc4ccc5ncsc5c4)ncnc3c2)cn1)C(F)(F)F (stereo not drawn) [Example A57, 3-(4-(4-(benzo[d]thiazol-6-ylamino)-5-((tetrahydro-2H-pyran-4-yl)oxy)quinazolin-7-yl)-1H-pyrazol-1-yl)-1,1,1-trifluoropropan-2-ol]	≤ 10 nM	10.1 to 50 nM	≤ 10 nM
CN1CC[C@@H](Nc2cc3c(Nc4ccc5ncsc5c4)ncnc3cc2-c2cnn(C)c2)[C@H](F)C1 (single isomer, unassigned) [Example 326]	≤ 10 nM	≤ 10 nM	≤ 10 nM
C[C@@H](Oc1cc(-c2cnn(C)c2)cc2ncnc(Nc3ccc4ncsc4c3F)c12)[C@@H]1CCCO1 [Example 112, 7-fluoro-N-(7-(1-methyl-1H-pyrazol-4-yl)-5-((R)-1-((S)-tetrahydrofuran-2-yl)ethoxy)quinazolin-4-yl)benzo[d]thiazol-6-amine]	≤ 10 nM	≤ 10 nM	≤ 10 nM
COc1nn(C)cc1-c1cc(O[C@H]2CN(C)C[C@H]2F)c2c(Nc3ccc4ncsc4c3)ncnc2c1 (single isomer, unassigned) [Example 374]	≤ 10 nM	10.1 to 50 nM	≤ 10 nM
CN1CC[C@H](O)[C@@H](Oc2cc(-c3cnn(C)c3)cc3ncnc(Nc4ccc5ncsc5c4)c23)C1 (single isomer, unassigned) [Example A33]	≤ 10 nM	≤ 10 nM	≤ 10 nM
C[C@@H]1CN(c2cc(O[C@H](C)C3COC3)c3c(Nc4ccc5ncsc5c4F)ncnc3c2)CCN1 (single isomer, unassigned) [Example 100]	≤ 10 nM	10.1 to 50 nM	10.1 to 50 nM
CC(C)Oc1cc(-c2cnn(C)c2)cc2ncnc(Nc3ccc4scnc4c3)c12 [Example 254, N-(5-isopropoxy-7-(1-methyl-1H-pyrazol-4-yl)quinazolin-4-yl)benzo[d]thiazol-5-amine]	≤ 10 nM	10.1 to 50 nM	≤ 10 nM
c1nc(Nc2ccc3ncsc3c2)c2c(OC3CCOCC3)cc(N3CC4CC(C3)O4)cc2n1 [Example 199, N-(7-(6-oxa-3-azabicyclo[3.1.1]heptan-3-yl)-5-((tetrahydro-2H-pyran-4-yl)oxy)quinazolin-4-yl)benzo[d]thiazol-6-amine]	≤ 10 nM	10.1 to 50 nM	≤ 10 nM
CN1CCC2(COC2)[C@H](Oc2cc(-c3cnn(C)c3)cc3ncnc(Nc4ccc5ncsc5c4)c23)C1 (single isomer, unassigned) [Example 354]	≤ 10 nM	10.1 to 50 nM	10.1 to 50 nM
COc1cc2ncnc(Nc3ccc4ncsc4c3F)c2cc1-c1cnn(C2CCN(C)CC2)c1 [Example 240, 7-fluoro-N-(7-methoxy-6-(1-(1-methylpiperidin-4-yl)-1H-pyrazol-4-yl)quinazolin-4-yl)benzo[d]thiazol-6-amine]	≤ 10 nM	≤ 10 nM	≤ 10 nM
